Earlier results in PMC10200032 (Pharmacological Reports, 2023).
≈ marks a conversion by molar mass, not a printed value.

Tested on: CVB4
Conditions: reference drug in earlier benzoquinazoline studies

In the case of `NC(=O)c1ncn([C@@H]2O[C@H](CO)[C@@H](O)[C@H]2O)n1` [ribavirin], the “EC50 against CVB4” value is given as 29 µg/mL (≈ 119 µM).
